Paper PMC3538728 (PLoS ONE, 2013)
Several values for one entry are separate records, joined by “and”; a condition that tells them apart may be missing. Identical values can stand only once. Like-named read-outs stand apart in the source and are kept apart here. Marks after values point to notes of the source that are not given here.

Target: T1, γ-secretase (Homo sapiens, UniProt P49768)
T1 construct: γ-Secretase is composed of four subunits: Aph1, Pen2, glycosylated nicastrin, and endo-proteolyzed presenilin as the catalytic core; endogenous in cells; host or cells: HeLa S3 (ATCC CCL-2.2)
T1 sequence (Q9NZ42 whole entry, other chains not shown): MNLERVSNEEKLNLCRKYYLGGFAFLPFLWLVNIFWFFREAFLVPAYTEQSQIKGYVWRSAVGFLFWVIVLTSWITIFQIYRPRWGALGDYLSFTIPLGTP
T1 sequence (Q92542 34-709, other chains not shown, further chain): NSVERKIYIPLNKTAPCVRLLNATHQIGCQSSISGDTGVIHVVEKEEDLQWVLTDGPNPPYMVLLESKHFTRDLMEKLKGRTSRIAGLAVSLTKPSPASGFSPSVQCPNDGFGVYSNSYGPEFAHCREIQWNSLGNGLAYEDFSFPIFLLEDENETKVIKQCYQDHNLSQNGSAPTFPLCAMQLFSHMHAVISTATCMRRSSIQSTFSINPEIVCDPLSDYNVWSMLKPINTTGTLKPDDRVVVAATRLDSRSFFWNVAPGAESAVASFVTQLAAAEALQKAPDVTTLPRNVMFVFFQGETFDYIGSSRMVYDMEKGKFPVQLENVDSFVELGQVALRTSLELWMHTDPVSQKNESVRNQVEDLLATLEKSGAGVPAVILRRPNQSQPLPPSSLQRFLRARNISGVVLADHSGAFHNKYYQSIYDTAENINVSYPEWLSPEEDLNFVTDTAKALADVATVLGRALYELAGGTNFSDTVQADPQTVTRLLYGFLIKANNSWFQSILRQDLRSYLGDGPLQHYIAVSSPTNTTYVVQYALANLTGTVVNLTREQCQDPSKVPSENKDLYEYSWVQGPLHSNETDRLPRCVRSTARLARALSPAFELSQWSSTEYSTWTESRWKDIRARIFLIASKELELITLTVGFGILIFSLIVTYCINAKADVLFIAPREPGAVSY
T1 sequence (Q96BI3 whole entry, other chains not shown, further chain): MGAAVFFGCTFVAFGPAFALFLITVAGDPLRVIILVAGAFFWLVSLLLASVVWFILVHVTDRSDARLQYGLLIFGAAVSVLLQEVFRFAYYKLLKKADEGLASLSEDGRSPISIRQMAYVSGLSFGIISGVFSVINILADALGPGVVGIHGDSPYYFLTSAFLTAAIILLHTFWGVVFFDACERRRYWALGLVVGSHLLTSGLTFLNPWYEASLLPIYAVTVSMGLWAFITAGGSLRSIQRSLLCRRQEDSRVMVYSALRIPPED
Experiment: Aβ 1–40 secretion from HeLa cells in the presence of DAPT (sandwich ELISA), dose-response fits
Type: cell-based
Excerpt: HeLa cells have been transfected using Lipofectamine LTX™ reagent following the manufacturer instructions. The transfection protocol and concentration of pSG5-cDNAwtC99 plasmid have been optimized to achieve desired assay sensitivity, a gradual increase in the substrate expression level, and a smooth transition from biphasic to the standard dose-response curves (Figs. 2–3). Initially concentration of pSG5-cDNAwtC99 plasmid have been optimized by western blots using anti-flag αM2 monoclonal antibody as described in our previous study. The cells were transfected in 24-well plates. The day before transfection the cells were trypsinized and counted. About 0.85×10^5 cells were seeded per well in 0.5 ml of complete growth medium to achieve about 75% confluent cultures on the day of transfection. Before the transfection old medium was removed and replaced with fresh 0.5 ml of complete growth medium. For transfection 5X DNA concentration was diluted in 500 µl of Opti-MEM®I Reduced Serum Media and mixed with 0.7 µl of Lipofectamine LTX™ Reagent. The solution was gently mixed and incubated for 30 minutes at room temperature to form DNA- Lipofectamine LTX™ Reagent complexes. Following the 30 min incubation, 100 µl of the DNA- Lipofectamine LTX™ Reagent complexes was added directly to each well containing cells and mixed gently by rocking the plate back and forth. The cells were incubated at 37°C in a CO2 incubator for 18 hours.
Fresh medium was added 18 hours after the transfection (0.5 ml per well), to prepare the cells for incubation with DAPT [18], [51]. Different concentrations of DAPT were prepared in DMSO, and added to the cells so that the final DMSO concentration in the culture was 0.1% (v/v). DMSO vehicle represents 0 nM DAPT. The cells were incubated with DAPT at given concentrations for 15 hours.
The assay linear response is in the range from 6–125 pM of Aβ 1–40. The assays were performed by closely following the manufacturer instructions. […] Each well was filled with 50 µl of the antibody conjugate solution and 50 µl of sample. The Aβ 1–40 standards were supplied by the manufacturer and prepared in parallel with other samples. All of the prepared wells were wrapped in aluminum foil and incubated overnight at 4°C with gentle mixing. The next day each well was washed five times with 300 µl of wash solution. After each […] wash, the wash solution was poured out and the wells were dried by tapping the plates on an absorbing paper. Washed wells were filled with 100 µl of the enzyme conjugate solution, covered, and incubated for 30 min at room temperature with shaking. The washing procedure was repeated once again to remove excess of the enzyme-conjugate. Next 100 µl of the substrate solution was added in each well in dark, and kept for 30 minutes covered at room temperature. The reaction was quenched by adding 50 µl of stop solution to each well, and within 15 min the signal intensity was read by measuring absorption at 450 nm.
All experimental results were analyzed using MicroCal Origin 7.0 program, nonlinear regressions, and equations that represent specific mechanism. All results are reported as the best fit value ± standard error with two-sigma confidence intervals shown in square brackets (i.e. x±y [p, q]). Briefly, the standard error indicates random errors (i.e. precision) for each method, while the two sigma confidence intervals indicate the ability of given experimental setup to provide information about specific best-fit parameter. The random error for presented experiments is low, as indicated by a low scatter from the best fit values. The sharp confidence intervals can be obtained by taking a large number of independent data points that cover all segments that define the measured functions. […]

[1] = HeLa, 250 ng/mL pSG5-cDNAwtC99, eqn. 2
[2] = HeLa, 400 ng/mL pSG5-cDNAwtC99, eqn. 2
[3] = HeLa, 600 ng/mL pSG5-cDNAwtC99, eqn. 2
[4] = HeLa, 800 ng/mL pSG5-cDNAwtC99, eqn. 2
[5] = average over 0-92 ng/mL pSG5-cDNAwtC99
[6] = untransfected HeLa cells, eqn. 1, six free fit parameters
[7] = untransfected HeLa cells, eqn. 1 with IA and MI as constants
[8] = untransfected HeLa cells, measured separately, taken as constant in regression

## C[C@H](NC(=O)Cc1cc(F)cc(F)c1)C(=O)N[C@H](C(=O)OC(C)(C)C)c1ccccc1 [DAPT, N-[N-(3,5-difluorophenacetyl)-L-alanyl]-S-phenylglycine t-butyl ester]
HeLa, 92 ng/mL pSG5-cDNAwtC99, eqn. 1
  Maximal Inhibition, MI: 1.9 ± 0.6 pM per 10^6 cells
HeLa, 92 ng/mL pSG5-cDNAwtC99, eqn. 1, activity at zero DAPT
  Initial Activity, IA: 119 ± 4 pM per 10^6 cells
HeLa, 92 ng/mL pSG5-cDNAwtC99, eqn. 1, read-out: Activation EC50
  EC50: 178 ± 45 nM
HeLa, 92 ng/mL pSG5-cDNAwtC99, eqn. 1, read-out: Inhibition IC50
  IC50: 661 ± 80 nM
[1]
  Inhibition Hill's coef: 1.02 ± 0.07
  Maximal Inhibition, MI: -0.9 ± 0.4 pM per 10^6 cells
HeLa, 250 ng/mL pSG5-cDNAwtC99, eqn. 2, activity at zero DAPT
  Initial Activity, IA: 229 ± 4 pM per 10^6 cells
HeLa, 250 ng/mL pSG5-cDNAwtC99, standard dose-response, eqn. 2, read-out: Inhibition IC50
  IC50: 126 ± 9 nM
[2]
  Inhibition Hill's coef: 0.95 ± 0.04
  Maximal Inhibition, MI: 2.0 ± 0.9 pM per 10^6 cells
HeLa, 400 ng/mL pSG5-cDNAwtC99, eqn. 2, activity at zero DAPT
  Initial Activity, IA: 190 ± 2 pM per 10^6 cells
HeLa, 400 ng/mL pSG5-cDNAwtC99, standard dose-response, eqn. 2, read-out: Inhibition IC50
  IC50: 110 ± 8 nM
[3]
  Inhibition Hill's coef: 0.84 ± 0.03
  Maximal Inhibition, MI: -4 ± 2 pM per 10^6 cells
HeLa, 600 ng/mL pSG5-cDNAwtC99, eqn. 2, activity at zero DAPT
  Initial Activity, IA: 140 ± 4 pM per 10^6 cells
HeLa, 600 ng/mL pSG5-cDNAwtC99, standard dose-response, eqn. 2, read-out: Inhibition IC50
  IC50: 98 ± 6 nM
[4]
  Inhibition Hill's coef: 0.61 ± 0.07
  Maximal Inhibition, MI: 2 ± 0.8 pM per 10^6 cells
HeLa, 800 ng/mL pSG5-cDNAwtC99, eqn. 2, activity at zero DAPT
  Initial Activity, IA: 90 ± 1 pM per 10^6 cells
HeLa, 800 ng/mL pSG5-cDNAwtC99, standard dose-response, eqn. 2, read-out: Inhibition IC50
  IC50: 89 ± 5 nM
At saturating C99 substrate
  mode of inhibition: noncompetitive inhibitor
[5]
  Activation Hill coef., average: 1.0 ± 0.1
  Inhibition Hill's coef, average: 2.1±0.2
  Maximal Inhibition, MI, average: 0.5 ± 0.2 pM per 10^6 cells
Average over 0-92 ng/mL pSG5-cDNAwtC99 (all biphasic curves), read-out: Inhibition IC50, average
  IC50: 534 ± 53 nM
Average over 0-92 ng/mL pSG5-cDNAwtC99 (all biphasic profiles), read-out: Activation EC50, average
  EC50: 111 ± 41 nM
Average over 0-92 ng/mL pSG5-cDNAwtC99 (biphasic curves)
  Maximal Activity, MA, average: 189 pM per 10^6 cells
Average over 250-800 ng/mL pSG5-cDNAwtC99
  Maximal Inhibition, MI, average: -0.5 ± 0.6 pM per 10^6 cells
Average over 250-800 ng/mL pSG5-cDNAwtC99 (standard dose-response curves), read-out: Inhibition IC50, average
  IC50: 106 ± 16 nM
If binding only at the activation site, 31 pM vs. 196 pM Aβ 1–40 per 10^6 cells
  potential to activate γ-secretase activity (MA vs. IA): ~7 fold
Transfection without DAPT giving same Aβ 1-40 secretion as endogenous substrate at 33 nM DAPT
  cDNAwtC99 required to reach activation by DAPT: 70 ng/mL
Transfection without DAPT giving same Aβ 1-40 secretion as endogenous substrate at 100 nM DAPT
  cDNAwtC99 required to reach activation by DAPT: 120 ng/mL
Transfection without DAPT giving same Aβ 1-40 secretion as endogenous substrate at 333 nM DAPT
  cDNAwtC99 required to reach activation by DAPT: 118 ng/mL
Transfection without DAPT giving same Aβ 1-40 secretion as endogenous substrate at 500 nM DAPT
  cDNAwtC99 required to reach activation by DAPT: 100 ng/mL
Transfection without DAPT giving same Aβ 1-40 secretion as endogenous substrate at 1000 nM DAPT
  cDNAwtC99 required to reach activation by DAPT: 16 ng/mL
Untransfected HeLa cells, 33 nM DAPT
  activity on Endogenous substrate (Aβ 1-40 secreted): 81.1 pM per 10^6 cells
Untransfected HeLa cells, 100 nM DAPT
  activity on Endogenous substrate (Aβ 1-40 secreted): 132 pM per 10^6 cells and 132.0 pM per 10^6 cells
Untransfected HeLa cells, 333 nM DAPT
  activity on Endogenous substrate (Aβ 1-40 secreted): 129.0 pM per 10^6 cells
Untransfected HeLa cells, 500 nM DAPT
  activity on Endogenous substrate (Aβ 1-40 secreted): 111.6 pM per 10^6 cells
Untransfected HeLa cells, 1000 nM DAPT
  activity on Endogenous substrate (Aβ 1-40 secreted): 43.0 pM per 10^6 cells
Untransfected HeLa cells, at 108 nM DAPT
  observed maximal activity, Aβ 1–40 secreted: 145 pM per 10^6 cells
[6]
  Activation Hill's coef: 1.09 ± 0.4
  Inhibition Hill's coef: 1.9±0.5 and 1.92 ± 0.5
[7]
  Activation Hill's coef: 1.09 ± 0.16
  Inhibition Hill's coef: 1.92 ± 0.25
  Maximal Activity, MA: 196 ± 35 pM per 10^6 cells
Untransfected HeLa cells, eqn. 1 with IA and MI as constants, read-out: Activation EC50
  EC50: 72 ± 9 nM
Untransfected HeLa cells, eqn. 1 with IA and MI as constants, read-out: Inhibition IC50
  IC50: 472 ± 35 nM
[8]
  Initial Activity, IA: 31 ^c pM per 10^6 cells
  Maximal Inhibition, MI: 0 ^c pM per 10^6 cells
Untransfected HeLa cells, peak of biphasic curve
  DAPT concentration at which maximal activity is observed: 108 nM
